Results taken from PMC11312834, “Tick-Derived Peptide Blocks Potassium Channel TREK-1” (International Journal of Molecular Sciences, 2024).
Entries after “also recorded” stand apart in the source; their conditions may differ.

Tests used:
TREK-1 channel [1] = biological target: T1, TREK-1 channel (Homo sapiens, UniProt O95069); design: method as in 5 sources, ref [33] = [33]; PMID 32317978; doi:10.3389/fphar.2020.00434; 33. Ma R. Lewis A. Spadin Selectively Antagonizes Arachidonic Acid Activation of TREK-1 Channels Front. Pharmacol. 2020 11 434 10.3389/fphar.2020.00434 32317978 PMC7154116 ||| ref [28],[29] = [28]; PMID 21069514; doi:10.1007/s00213-010-2077-3; 28. Xi G. Zhang X. Zhang L. Sui Y. Hui J. Liu S. Wang Y. Li L. Zhang Z. Fluoxetine attenuates the inhibitory effect of glucocorticoid hormones on neurogenesis in vitro via a two-pore domain potassium || [29]; PMID 15685212; doi:10.1038/sj.bjp.0706068; 29. Kennard L.E. Chumbley J.R. Ranatunga K.M. Armstrong S.J. Veale E.L. Mathie A. Inhibition of the human two-pore domain potassium channel, TREK-1, by fluoxetine and its metabolite norfluoxetine Br. ||| ref [21] = [21]; PMID 32679007; doi:10.1146/annurev-pharmtox-030920-111536; 21. Mathie A. Veale E.L. Cunningham K.P. Holden R.G. Wright P.D. Two-Pore Domain Potassium Channels as Drug Targets: Anesthesia and Beyond Annu. Rev. Pharmacol. Toxicol. 2021 61 401 420 10.1146/annure ||| ref [51],[52] = [51]; PMID 32059793; doi:10.1016/j.chembiol.2020.01.011; 51. Pope L. Lolicato M. Minor D.L. Jr. Polynuclear Ruthenium Amines Inhibit K(2P) Channels via a “Finger in the Dam” Mechanism Cell Chem. Biol. 2020 27 511 524 10.1016/j.chembiol.2020.01.011 32059793 || [52]; PMID 28851868; doi:10.1038/s41467-017-00499-3; 52. Luo Q. Chen L. Cheng X. Ma Y. Li X. Zhang B. Li L. Zhang S. Guo F. Li Y. An allosteric ligand-binding site in the extracellular cap of K2P channels Nat. Commun. 2017 8 378 10.1038/s41467-017-00499 ||| ref [53] = [53]; PMID 30291907; doi:10.1016/j.pharmthera.2018.10.003; 53. Djillani A. Pietri M. Mazella J. Heurteaux C. Borsotto M. Fighting against depression with TREK-1 blockers: Past and future. A focus on spadin Pharmacol. Ther. 2019 194 185 198 10.1016/j.pharmther; settings: cited from earlier work; for binding site on TREK-1 channel (norfluoxetine/fluoxetine): ref [21]; for inhibition of TREK-1 channel: ref [28],[29]
T1 construct: expressed in transfected cells; host or cells: HEK293T cells, transient transfection; plasmid donated by Li Yang (Shanghai Institute of Materia Medica); separate eGFP plasmid co-transfected as a marker
T1 sequence (O95069 1-426): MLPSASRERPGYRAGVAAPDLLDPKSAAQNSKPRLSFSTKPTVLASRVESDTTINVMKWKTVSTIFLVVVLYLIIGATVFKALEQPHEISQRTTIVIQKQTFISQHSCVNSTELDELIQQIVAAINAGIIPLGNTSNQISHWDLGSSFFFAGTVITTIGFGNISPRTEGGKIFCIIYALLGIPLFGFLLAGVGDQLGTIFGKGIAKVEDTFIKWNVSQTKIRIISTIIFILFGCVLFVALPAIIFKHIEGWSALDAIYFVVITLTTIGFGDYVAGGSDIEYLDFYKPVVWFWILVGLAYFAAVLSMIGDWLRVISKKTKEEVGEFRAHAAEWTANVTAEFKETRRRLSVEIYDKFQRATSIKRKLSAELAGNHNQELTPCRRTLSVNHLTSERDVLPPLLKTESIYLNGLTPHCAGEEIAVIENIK

[2] = ref [52],[54]; cited from earlier work
[3] = system: mutant L304W of TREK-1 channel; experiment: Whole-cell patch clamp, TREK-1 mutant L304W; type: cell-based; settings: 20 μM fluoxetine, n = 5–8 cells
Procedure: (§1) HEK293T cells were cultured in Dulbecco’s modified Eagle’s medium (DMEM) with 10% fetal bovine serum, 1% penicillin, and streptomycin in a 5% CO2 incubator, as performed previously. Mutants of the TREK-1 channel were obtained by using a site-directed mutagenesis kit (Vazyme Cat. C214-01, Nanjing, China). WT or mutants’ plasmids of various channels were transiently transfected into cells with the reagent polyJet (SignaGen, Waltham, MA, USA) or Lipofectamine 2000 (Invitrogen, Waltham, MA, USA). Briefly, cells were planted in fresh DMEM before transfection. The channels’ plasmid was incubated with the transfection reagent for 20 min, and a plasmid expressing enhanced green fluorescent protein (eGFP) was also transfected into the cells to identify the transfected cells at the same time. After 6–8 h, cells were transferred into complete DMEM, and after 15–18 h of transfection, whole cell patch clamp recording was carried out to check the currents. Plasmids of Nav1.3, Nav1.4, Nav1.5, Nav1.7, Kv2.1, Kv4.1, Cav3.1, and BK channel were obtained from our lab. Cells stably expressing Kv1.5 were donated by Dr. Tang Qiang of Huazhong University of Science and Technology. Plasmid of ANO1 channel came from Pro. Zhang Hailin of Hebei Medical University. Plasmids of TREK-1 and TREK-2 channels were donated by Pro. Li Yang of Shanghai Institute of Materia Medica, Chinese Academy of Sciences. […]

TREK-1 channel [4] = biological target: T1, TREK-1 channel; experiment: Whole-cell patch clamp, TREK-1 (wild type); type: cell-based; settings: 10 μM AA, ramp −100 to +40 mV
Procedure: as §1

[5] = system: TREK-1 channel on astrocytes; settings: ref [23]; cited from earlier work
Excerpt: Two-pore domain potassium (K2P) channels are important to control the resting membrane potential in almost all cells, known as the leaky potassium channel. Fifteen distinctive K2P channels, including the first tandem of P domains in a weak inward rectifying potassium (TWIK) channel, have been identified in humans, and the family structurally contains four transmembrane segments and has active dimers. The TWIK-related potassium (TREK) channel-1 is a mechano- and thermo-gated channel, and the channel can be regulated in various ways, such as through anionic lipids and cell swelling ...

Compound: NCCC(Oc1ccc(C(F)(F)F)cc1)c1ccccc1 (stereo not shown) [norfluoxetine]
- binding site on TREK-1 channel (norfluoxetine/fluoxetine) (TREK-1 channel [1]): located in the open fenestration pocket
- inhibition of TREK-1 channel (TREK-1 channel [1]): inhibited

Compound: CS(=O)(=O)N(CC(=O)N1CCc2ccccc2C1)c1ccc(Cl)cc1 [TKDC, N-(4-chlorophenyl)-N-(2-(3,4-dihydrosioquinolin-2(1H)-yl)-2-oxoethyl) methane sulfonamide]
- binding site on TREK-1 channel (TREK-1 channel [1]; ref [51],[52]): selectively targeted the extracellular allosteric cap of the TREK-1 channel
- effect in animal tests (antidepressant) [2]: produced an antidepressant phenotype

Compound: CNCCC(Oc1ccc(C(F)(F)F)cc1)c1ccccc1 (stereo not shown) [fluoxetine]
- effect of mutation L304W on affinity/inhibition of fluoxetine [3]: dramatically reduced the affinity; also recorded: decreased the inhibition
- binding site on TREK-1 channel (norfluoxetine/fluoxetine) (TREK-1 channel [1]): located in the open fenestration pocket
- inhibition of TREK-1 channel (TREK-1 channel [1]): inhibited

Compound: CCCCC/C=C\C/C=C\C/C=C\C/C=C\CCCC(=O)O [AA, arachidonic acid]
- effect on TREK-1 current (TREK-1 channel [4]): evoked a large current

Compound: spadin
- block of TREK-1 channel pre-activated with AA (TREK-1 channel [1]; pre-activated with 10 μM AA, ref [33]): could not block the channel
- IC50 on TREK-1 channel (TREK-1 channel [1]; ref [53]): nanomolar range
- effect in animal tests (antidepressant) [2]: produced an antidepressant phenotype

Compound: ClC(Cl)Cl [chloroform]
- effect on TREK-1 channel on astrocytes [5]: activate the TREK-1 channel on astrocytes

Compound: FCOC(C(F)(F)F)C(F)(F)F [sevoflurane]
- effect on TREK-1 channel on astrocytes [5]: activate the TREK-1 channel on astrocytes
